Data reported in US9381208B2, “Structure and use of 5′ phosphate oligonucleotides” (Rheinische Friedrich-Wilhelms-Universität, priority 2006, dated 2016).
{ppp} = triphosphate group; {Biotin} = biotin label U

How the values were obtained:
Caspase-1 = Caspase-1 activation in B16 cells (western blot); assay type: cell-based, murine; details: 24 hours
Description: (e) B16 cells were incubated with control siRNA, 3p-2.2 and poly(I:C) for 24 hours and assessed for caspase-1 activity via immunoblotting. α-Tublin served as loading control. One representative experiment of three is shown.
(§1) For Western blotting, samples were separated by SDS-PAGE and transferred to a nitrocellulose membrane (Amersham-Biosciences, UK) by semi-dry electroblotting. As primary antibody polyclonal rat anti-RIG-I (kind gift of Dr. Kremer), polyclonal rabbit anti-Bcl-2 (Santa Cruz, sc-7382) and rabbit anti-caspase-1 (Santa Cruz, sc-7148) antibody were used. As secondary antibody, peroxidase-conjugated anti-mouse or anti-rabbit antibody (Amersham-Biosciences) were used. Bound antibodies were visualized by enhanced chemiluminescence system (ECL) according to the manufacturer's protocol (Amersham-Biosciences).

RIG-I [1] = target: T1, RIG-I (Homo sapiens, UniProt O95786); experiment: pIFN-beta-Luc reporter assay in HEK 293 cells transfected with RIG-I; assay type: cell-based; set-up: Only HEK 293 cells expressing full length RIG-I responded to 5′triphosphate RNA; FLAG; expressed in transfected cells; host or cells: HEK 293; details: HEK 293 cells expressing full length RIG-I, 200 ng, 24 hours
T1 sequence (O95786 1-925): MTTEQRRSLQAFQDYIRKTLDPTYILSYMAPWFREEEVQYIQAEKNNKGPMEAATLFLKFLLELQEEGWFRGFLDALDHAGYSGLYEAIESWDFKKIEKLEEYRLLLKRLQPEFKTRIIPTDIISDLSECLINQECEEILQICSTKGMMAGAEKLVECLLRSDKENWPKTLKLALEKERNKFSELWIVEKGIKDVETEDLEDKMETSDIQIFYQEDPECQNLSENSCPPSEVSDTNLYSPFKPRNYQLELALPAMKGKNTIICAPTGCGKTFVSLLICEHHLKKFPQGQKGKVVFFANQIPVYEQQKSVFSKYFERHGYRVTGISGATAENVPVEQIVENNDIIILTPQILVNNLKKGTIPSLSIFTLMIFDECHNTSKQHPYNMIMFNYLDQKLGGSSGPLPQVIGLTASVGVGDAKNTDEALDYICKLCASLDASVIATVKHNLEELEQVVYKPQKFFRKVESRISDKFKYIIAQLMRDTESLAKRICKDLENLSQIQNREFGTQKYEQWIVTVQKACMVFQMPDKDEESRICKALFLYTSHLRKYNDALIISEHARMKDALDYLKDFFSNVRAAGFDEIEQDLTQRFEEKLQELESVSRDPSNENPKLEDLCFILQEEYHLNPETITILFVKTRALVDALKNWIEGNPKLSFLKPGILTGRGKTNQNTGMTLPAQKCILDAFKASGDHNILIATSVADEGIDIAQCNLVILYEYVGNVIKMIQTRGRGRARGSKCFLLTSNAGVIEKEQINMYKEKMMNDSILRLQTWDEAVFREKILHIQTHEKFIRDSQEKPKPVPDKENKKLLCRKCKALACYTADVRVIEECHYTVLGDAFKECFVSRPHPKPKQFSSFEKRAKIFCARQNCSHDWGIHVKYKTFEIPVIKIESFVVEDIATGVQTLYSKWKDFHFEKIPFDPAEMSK

[2] = tested on: B16 melanoma lung metastases; experiment: B16 melanoma lung metastases model; assay type: in vivo; details: C57BL/6 mice, 50 μg complexed with jetPEI intravenously on day 3, 6 and 9, day 14, compared with PolyA
Description: (a) Therapeutic regimen: Mice were challenged with 4×10^5 B16 melanoma cells intravenously to experimentally induce lung metastases on day 0. Mice were treated intravenously with the indicated nucleic acid complexed to jetPEI™ on day 3, 6 and 9 as indicated. 14 days after challenge, the number of macroscopically visible melanoma metastases on the surface of the lungs was counted with the help of a dissecting microscope or the lung weight was calculated.
(b) Groups of five C57BL/6 mice were challenged with 4×10^5 B16 and treated as described. Mice were treated intravenously on day 3, 6 and 9 with 50 μg of OH-2.2, 50 μg 3p-2.2, 50 μg 3p-GC (a nonspecific double-stranded 3p-RNA) or 50 μg CpG oligonucleotide ligand, each complexed with jetPEI™. Control groups received 100 μl of Glucose 5% or 50 μg of PolyA complexed with jetPEI™. Tumor growth was assessed after 14 days by measuring the weight of the lungs. Shown are lung weights of five individual mice. The mean lung weight is indicated by a column. […]
For the induction of lung metastases we injected 4×10^5 B16 melanoma cells into the tail vein of the indicated mice. […] 14 days after challenge the number of macroscopically visible melanoma metastases on the surface of the lungs was counted with the help of a dissecting microscope or, in case of massive tumor load, lung weight was determined. […]

[3] = Blood cell counts (leucocytes, platelets) after injection; assay type: in vivo, C57BL/6 mice; details: 50 μg, 48 hours
Description: (b & c) C57BL/6 mice were injected with 50 μg 3p-2.2 complexed with jetPEI™. Blood was collected after 48 h and processed as EDTA […] for measurement of leucocytes (WBC) and platelets. Blood cell counts were performed at the Central Laboratory of the Department of Internal Medicine, University of Munich at the indicated time point (P**<0.01 between the platelet count of 3p-2.2 and CpG). Data are shown as means±SEM of 2 independent experiments.

RIG-I [4] = target: T1, RIG-I; experiment: Ligand binding studies: pull-down of RIG-I by biotinylated RNA; set-up: HEK 293 cells were transiently transfected with full length RIG-I, RIG-I CARD2 or RIG-I ΔHELIc; expressed in transfected cells; host or cells: HEK 293 (whole cell lysate); details: whole cell lysate of HEK 293 cells overexpressing full length RIG-I
Description: (§2) Cell lysates were prepared according to Meister et al. (G. Meister et al., Mol Cell 15, 185 (Jul. 23, 2004)) with minor modifications. HEK 293 cells were transfected using high molecular weight (25 kDa) polyethylenimine (PEI; Sigma, 40.872-7). At a confluency of 80-90%, cells were transfected with a PEI:DNA ratio of 1.5:1. 24-36 hours after transfection cells were harvested and the cell pellet was resuspended in five pellet volumes of 10 mM KCl, 1.5 mM MgCl2, 0.5 mM dithiothreitol, 10 mM HEPES-NaOH (pH 7.9), 0.5 mM PMSF and incubated for ten minutes on ice. Subsequently cells were washed and the cell pellet was resuspended in two pellet volumes of the buffer described above and homogenized by douncing. The cell nuclei were removed from the cell lysate by centrifugation at 2.000 g for ten minutes. The supernatant was transferred into microcentrifuge tubes and cleared further by centrifugation at 2.000 g for ten minutes and further centrifugation for 30 minutes at 20.000 g to obtain the cytoplasmic extract. The concentration of KCl of the extract was subsequently raised to 100 mM by addition of 2 M KCl and glycerol was added to a percentage of 10%. For purification of FLAG-tagged RIG-IC complexes, cytoplasmic extracts were incubated in FLAG M2 agarose beads (Sigma). FLAG M2 agarose beads were washed once with 0.1 M glycine (pH 3.5) and equilibrated by washing with 1 M Tris-HCl (pH 8.0). […]

RIG-I [5] = experiment: as above; details: CARD2 and RIG-I Δ Helicase_C
Description: as §2

human primary monocytes = experiment: IFN-α production in human primary monocytes transfected with RNA (ELISA); assay type: cell-based
PBMC = experiment: IFN-α induction in the presence of chloroquine; assay type: cell-based, human
PDC = experiment: IFN-α production in human PDC (ELISA); assay type: cell-based; details: 24 hours
Description: Human PBMC were prepared from whole blood donated by young healthy donors by Ficoll-Hypaque density gradient centrifugation (Biochrom, Berlin, Germany). PDC were isolated by MACS using the blood dendritic cell Ag (BCDA)-4 dendritic cell isolation kit from Miltenyi Biotec (Bergisch-Gladbach, Germany). Briefly, PDC were labelled with anti-BDCA-4 Ab coupled to colloidal paramagnetic microbeads and passed through a magnetic separation column twice (LS column, then MS column; Miltenyi Biotec). The purity of isolated PDC (lineage-negative, MHC-II-positive and CD123-positive cells) was above 95%. Before isolation of monocytes, PDC were depleted by MACS (LD column; Miltenyi Biotec) and then monocytes were isolated using the monocyte isolation kit II (Miltenyi Biotec). […] PDC cultures were additionally supplemented with 10 ng/ml IL-3 (R&D Systems). […] Vero (African green monkey kidney) and HEK 293T (human embryonic kidney) cells were maintained in Dulbecco's modified Eagle's medium supplemented with antibiotics and 5% or 10% foetal calf serum, respectively. BSR cells were propagated in Glasgow minimal essential medium supplemented with 10% newborn calf serum, phosphate broth, amino acids and antibiotics.
Human IFN-α was assessed in cell culture supernatants using the IFN-α module set (Bender MedSystems, Graz, Austria). The murine IP-10 ELISA was from Biosource (Solingen, Germany), the murine IFN-[…] ELISA was from PBL Biomedical Laboratories (Piscataway, USA). All ELISA procedures were performed, according to manufacturers' recommendations.

RIG-I [6] = experiment: Expression of endogenous RIG-I in B16 cells (western blot); assay type: cell-based, murine; details: 6 hours
Description: (b) To determine the endogenous expression of RIG-I, B16 cells were stimulated with 3p-2.2 (1.2 μg/well) and murine IFN-β (1000 U/ml). After 6 hours cells were lysed and analyzed for endogenous expression of RIG-I by Western Blot. HEK293 cells overexpressing full-length RIG-I served as positive control. One representative experiment of two is shown.
as §1

Polyinosinic:polycytidylic acid [poly(I:C)]
cleavage of procaspase-1 (Caspase-1): increased cleavage of procaspase-1 to active subunit p10 | IFN-β promoter reporter expression (RIG-I [1]): did not respond

5′-TCCATGACGTTCCTGACGTT-3′ [CpG 1826]
lung metastases [2]: significant reduction of lung metastases, but to a lesser extent than 3p-2.2 | thrombocytopenia [3]: more apparent

tri-G-AC-U-Bio: biotinylated 5′ triphosphate oligonucleotide, SEQ ID NO: 349, 3′ terminal biotinylated U (GGGAGACAGGCACCACACACACACACACUUU; RNA, 5' {ppp}, 3' {Biotin}, backbone not given here; biotin attached to the 3'-terminal U)
pull-down of full length RIG-I (RIG-I [4]): able to immunoprecipitate full length RIG-I | pull-down of truncated versions of RIG-I (RIG-I [5]): not very effective at pulling down

5′-pppGGGAGACAGGCACCACACACACACACACUUU-3′ [tri-G-AC-U]
pull-down of full length RIG-I (RIG-I [4]): did not immunoprecipitate RIG-I

5′-ggGGGACGATCGTCgggggG-3′ [CpG-A ODN 2216, reference compound]
IFN-α production in monocytes (human primary monocytes; 200 ng RNA transfected, 24 hours, ELISA): failed to produce IFN-α | IFN-α production with chloroquine (human primary monocytes; isolated monocytes): inactive | effect of increasing concentrations of chloroquine on IFN-α induction (PBMC): inhibited IFN-α induction | IFN-α production in PDC (PDC): induce IFN-α in PDC

B1: IFN-β: Recombinant murine IFNβ (protein, UniProt P01575 22-182, looked up)
Interferon beta: INYKQLQLQERTNIRKCQELLEQLNGKINLTYRADFKIPMEMTEKMQKSYTAFAIQEMLQNVFLVFRNNFSSTGWNETIVVRLLDELHQQTVFLKTVLEEKQEERLTWEMSSTALHLKSYYWRVQRYLKLMKYNSYAWMVVRAEIFRNFLIIRRLTRNFQN
RIG-I-expression (RIG-I [6]): strongly upregulated
